Data reported in patent US20070128139A1, “Hair treatment compositions comprising hydroxy comopounds” (priority 2002, published 2007).

Test: cuticle abrasion test (hair washed with shampoo test composition, blended, cuticle recovered and weighed)
Conditions: freeze-dried cuticle weighed back after abrasion; 0.03M compound in base shampoo; 4 g hair washed twice in 0.4 g test composition; lower = less cuticle loss
Description: A base shampoo composition was prepared, comprising 12 wt % sodium lauryl ether sulphate (2EO), […] cocoamidopropyl betaine and 86 wt. % water.
To this base solution 0.03M of the following compounds was added:
The compositions were tested in a cuticle abrasion test. Root end hair (as received form the supplier) was pre-cleaned by washing for 1 minute in Composition I followed by copious rinsing in double deionised water. The hair was left to dry naturally over 24 hrs.
For each test, 4 g of hair was washed in 0.4 g of the test composition for 30 seconds, rinsed for 30 seconds, and the washing/rinsing cycle repeated. The hair was left to dry naturally overnight.
The hair was cut into 1 cm lengths, placed in a blender bucket and 200 ml of double de-ionized water was added. The blender was placed on full power for 1 minute. The liquor was decanted off and transferred to a 50 ml centrifuge tube and centrifuged for 10 minutes at 4,300 RPM. The resulting clear liquor was decanted off leaving the cuticle sediment at the bottom of the tube.
The cuticle was transferred from the tube into a beaker with 3×5 ml washes and passed through a series of sieves (425 and 53 microns). The sieves were washed with a further 2×10 ml of water to ensure complete recovery of the cuticle. The sample was made up to 50 ml in a centrifuge tube, centrifuged for 15 minutes and the liquor decanted off. The cuticle was transferred with double deionised water (2×10 ml washes) to a beaker and freeze-dried.
The freeze-dried cuticle was weighed back to determine percentage recovery.

| Structure (SMILES) | % recovery [%] |
| --- | --- |
| CCCC(C)(C)O [Example 4, 2-methyl-2-pentanol] | 0.58 |
| CC(C)CC(C)O (stereo not drawn) [C, 4-methyl-2-pentanol, reference compound] | 0.79 |
| CCC(C)(O)CCCC(C)C (stereo not drawn) [B, 3,7-dimethyl-3-octanol, reference compound] | 0.84 |
| CCCCCC(C)(C)O [Example 2, 2-methyl-2-heptanol] | 0.54 |
| CCCCC(O)C(C)C (stereo not drawn) [Example 3, 2-methyl-3-heptanol] | 0.55 |
| CCCC(C)CO (stereo not drawn) [Example 7, 2-methyl-1-pentanol] | 0.64 |
| CCC(C)C(C)O (stereo not drawn) [Example 6, 3-methyl-2-pentanol] | 0.62 |
| CCCCC(C)(C)O [Example 1, 2-methyl-2-hexanol] | 0.53 |
| CCCC(C)(O)CC(C)C (stereo not drawn) [Example A, 2,4-dimethyl-4-heptanol, reference compound] | 0.84 |
